In patent US7973021B2, “Immunomodulating agent in gut” (Kabushiki Kaisha Hayashibara Seibutsu Kagaku Kenkyujo, priority 2005, dated 2011):

Tests used:
female BALB/c mice [1] = test: IgA content in feces of mice fed saccharide-supplemented purified diet (ELISA); assay type: in vivo; details: for IgA content in feces: average of five mice
Protocol: To investigate immunomodulating effects of various saccharides, IgA contents in feces of mice administered saccharides were measured. After six-week-old female BALB/c mice were preliminarily grown for a week with AIN-93G, which is a standard growth purified diet for nutritional study using mice or rats introduced by American Institute of Nutrition in 1993, they were separated in groups of five mice each, and unlimitedly administered the test diets, which is made by supplementing 5 w/w % of the cyclic tetrasaccharide (produced in Example 2), 5 w/w % of nigerooligosaccharide (12.5 w/w % of “NISSHOKU TASTE OLIGO SYRUP”, containing 40% or more of nigerooligosaccharide on a dry solid basis, commercialized by Nihon Shokuhin Kako Co., Ltd.), or 5 w/w % of isomaltooligosaccharide (“ISOMALT 90” commercialized by Hayashibara Shoji, Inc.) to the same formula diet described above except the amount of corn starch was reduced by the relevant weight of the added test saccharide. As control, one group was administered with the standard growth purified diet (AIN-93G) without the test saccharides described above. After 1, 2, 3 and 4 weeks from the initial administration of the test or control diets, fresh feces were taken from each mouse and IgA content was measured by the ELISA method using anti-IgA antibody (MOUSE IgA ELISA QUANTITATION KIT produced by Bethyl Laboratories, Inc). The values expressed in percent in Table 1 mean the relative amounts with respect to control in each week.

female BALB/c mice [2] = test: Analysis of cecal contents (pH, weight, IgA, IgG) of mice fed saccharide diets for 4 weeks; assay type: in vivo
Protocol: To investigate the immunomodulating effect of the various saccharides, IgA content and IgG content in the cecal contents of the mice administered saccharides were measured. After the mice fed on the purified diet containing the test saccharide or the control purified diet (AIN-93G) for 4 weeks in Experiment 1 were killed, their cecums were surgically removed. After the pH and weight of the cecum contents were measured, IgA content and IgG content in the cecal contents were measured. IgA content was measured by ELISA method using anti-IgA antibodies and IgG content was measured by ELISA method using anti-IgG antibodies (MOUSE IgG ELISA QUANTITATION KIT produced by Bethyl Laboratories, Inc) and the amounts of the antibodies per gram of the cecal contents were obtained.

Peyer's patch cells [3] = test: IgA, IL-6 and TGF-β produced by Peyer's patch cells taken from mice administered the saccharides (ConA culture, ELISA); assay type: in vivo
Protocol: To investigate the immnomodulating effect of the various saccharides, the contents of IgA, IL-6 and TGF-βproduced by the Peyer's patch cells taken from the mice administered the saccharides. After the Peyer's patches taken from the mice administered with the purified diet containing the test saccharides or the control purified diet in Experiment 2 were cut by scissors, they were treated in 0.2 w/w % collagenase solution at 37° C. for 30 minutes. They were filtered through a cell strainer and the filtrate containing the cells were centrifuged to give the cell precipitates. They were suspended in 45 w/w % PARCOR (commercialized by Amersham, PLC), the cell suspensions were layered on 75 w/w % PARCOR and centrifuged for 10 minutes at 1,000 g. Cells floating at the interface between 45 w/w % PARCOR and 75 w/w % PARCOR were collected and suspended in RPM1164 medium containing 10% FCS and 10 mM HEPES to give the cell suspensions at a concentration of 1×10^6 cells/ml. They were seeded in 24-well microplates by 1 ml/well, added with 2 μg/m1 of concanavalin A, and cultured at 37° C. for 48 hours in atmosphere of 5% carbon dioxide. The culture supernatant was collected from each well and their IgA contents, TGF-βcontents or IL-6 contents were measured by ELISA method using anti-mouse-IgA antibody, anti-mouse-IL-6 antibody and anti-mouse-TGF-μ1 antibody, then the averages were calculated from the data of five mice. The values in Table 3 means relative amounts (%) to IgA, IL-6 or TGF-β amount produced in Peyer's patch cells taken from the control mice.

female BALB/c mice [4] = test: Amounts of organic acids in cecal contents of mice ingesting the saccharides (ion chromatography); assay type: in vivo
Protocol: To investigate the effects of the various saccharides on the enteric environment of mice, the contents of organic acids in the cecal contents were measured. After the cecal contents taken from the mice administered the purified diet containing the test saccharides or the control purified diet in Experiment 2 were suspended in an adequate amount of purified water, their supernatants collected by centrifugation were filtered with membrane (pore size of 0.45 μm). The filtrates were subjected to an ion chromatoanalyzer IC500P (produced by Yokogawa Electric Corporation) loaded with precolumn PCS5-052 and separation column SCS5-252, and eluted with 2 mM sulfuric acid (1.0 ml/min) to analyze the amounts of organic acids. The values expressed in percent in Table 4 mean the relative amounts of each organic acid in the cecal contents to those of the control mice.

Peyer's patch cells [5] = test: Effects of saccharides on IFN-γ and IL-4 production of Peyer's patch cells in vitro (ELISA); assay type: cell-based, mice; details: saccharide 0.1 mg/ml; for Relative amount of IFN-γ / Relative amount of IL-4: 72 hours, relative to control; for IFN-γ production by stimulation of concanavalin A (in words): in vitro
Protocol: To investigate direct effects of various saccharides on Peyer's patch cells, the amounts of IFN-γ and IL-4 produced in Peyer's patch cells taken from mice by adding various kinds of saccharide in an in vitro experiment. After six-week-old female BALB/c mice were preliminarily grown for a week with a standard growth purified diet (AIN-93G), their Peyer's patch cells were collected according to the method of Experiment 3. The cell suspension at a concentration of 1×10^6 cells/ml was prepared with RPMI1640 medium containing 10% FCS and 10 mM HEPES and seeded in 24-well microplates by 1 ml/well. After the test saccharides (the cyclic tetrasaccharide, nigerose or isomaltose) were added in an amount of 0.1 mg/ml and lipopolysaccharide (LPS) or concanavalin A (ConA) of 2 μg/ml, they were cultured at 37° C. for 72 hours in an atmosphere of 5% carbon dioxide. The amounts of IFN-γin the supernatants were measured by the ELISA method using anti-mouse- IFN-γ antibodies (MURINE IFN-γELISA DEVELOPMENT KIT, produced by PeproTech, Inc.), and the amounts of IL-4 were measured by the ELISA method using anti-mouse-IL-4 antibodies (Mouse IL-4 ELISA DEVELOPMENT KIT, produced by Genzyme-Techne). As a control, the amounts of IFN-γ and IL-4 produced in Peyer's patch cells cultured with the medium without adding the test saccharides by the same way described above. The values in Table 5 were shown as the relative amounts (%) to control.

[6] = after 4 weeks on 5 w/w % saccharide diet
[7] = after 4 weeks on 5 w/w % saccharide diet, per gram of cecal contents
[8] = cells from mice administered the saccharide
[9] = relative to Peyer's patch cells of control mice, 2 μg/ml concanavalin A, 48 hours, average of five mice
[10] = cecal contents, 4 weeks on 5 w/w % saccharide diet

Compound: OC[C@H]1O[C@@H]2OC[C@H]3O[C@H](O[C@@H]4[C@@H](O)[C@@H](OC[C@H]5O[C@H](O[C@H]([C@H]2O)[C@@H]1O)[C@H](O)[C@@H](O)[C@@H]5O)O[C@H](CO)[C@H]4O)[C@H](O)[C@@H](O)[C@@H]3O [Cyclic tetrasaccharide, cyclo{>6)-α-D-glucopyranosyl-(1>3)-α-D -glucopyranosyl-(1>6)-α-D-glucopyranosyl-(1>3)-α-D -glucopyranosyl-(1>}]
- IgA content in feces (female BALB/c mice [1]; First week (age in 8 weeks), 5 w/w % saccharide in AIN-93G diet): 5.61 mg/g
- IgA content in feces, relative amount with respect to control (female BALB/c mice [1]; First week, 5 w/w % saccharide in diet): 106%
- IgA content in feces (female BALB/c mice [1]; Fourth week (age in 11 weeks), 5 w/w % saccharide in diet): 7.09 mg/g
- IgA content in feces, relative amount with respect to control (female BALB/c mice [1]; Fourth week, 5 w/w % saccharide in diet): 328%
- IgA content in feces (female BALB/c mice [1]; Second week (age in 9 weeks), 5 w/w % saccharide in diet): 8.47 mg/g
- IgA content in feces, relative amount with respect to control (female BALB/c mice [1]; Second week, 5 w/w % saccharide in diet): 214%
- IgA content in feces (female BALB/c mice [1]; Third week (age in 10 weeks), 5 w/w % saccharide in diet): 7.57 mg/g
- IgA content in feces, relative amount with respect to control (female BALB/c mice [1]; Third week, 5 w/w % saccharide in diet): 346%
- IgA contents in feces of the mice (in words) (female BALB/c mice [1]; added in the purified diet): increased
- IgA contents in cecal contents (in words) (female BALB/c mice [2]; 4 weeks on saccharide diet): highest increase
- Weight of cecal contents (female BALB/c mice [2]; [6]): 169 mg
- pH of cecal contents (female BALB/c mice [2]; [6]): 7.16
- IgA content in cecal contents (female BALB/c mice [2]; [7]): 4.4 mg/g
- IgG content in cecal contents (female BALB/c mice [2]; [7]): 85 mg/g
- IgA secretion in Peyer's patch cells (in words) (Peyer's patch cells [3]; [8]): increased
- production of IL-6 in Peyer's patch cells (in words) (Peyer's patch cells [3]; [8]): increased
- production of TGF-β in Peyer's patch cells (in words) (Peyer's patch cells [3]; [8]): increased
- Relative IL-6 content (Peyer's patch cells [3]; [9]): 326%
- Relative IgA content (Peyer's patch cells [3]; [9]): 209%
- Relative TGF-β content (Peyer's patch cells [3]; [9]): 142%
- Acetic acid, relative amount to control mice (female BALB/c mice [4]; cecal contents): (94%)
- Formic acid, relative amount to control mice (female BALB/c mice [4]; cecal contents): (258%)
- Isobutyric acid, relative amount to control mice (female BALB/c mice [4]; cecal contents): (70%)
- Isovaleric acid, relative amount to control mice (female BALB/c mice [4]; cecal contents): (73%)
- Lactic acid, relative amount to control mice (female BALB/c mice [4]; cecal contents): (1000%)
- Malic acid, relative amount to control mice (female BALB/c mice [4]; cecal contents): (179%)
- Propionic acid, relative amount to control mice (female BALB/c mice [4]; cecal contents): (100%)
- Succinic acid, relative amount to control mice (female BALB/c mice [4]; cecal contents): (267%)
- Total organic acids, relative amount to control mice (female BALB/c mice [4]; cecal contents): (109%)
- n-Butyric acid, relative amount to control mice (female BALB/c mice [4]; cecal contents): (206%)
- n-Valeric acid, relative amount to control mice (female BALB/c mice [4]; cecal contents): (73%)
- Amount of organic acid: Acetic acid (female BALB/c mice [4]; [10]): 63 µmol/g
- Amount of organic acid: Formic acid (female BALB/c mice [4]; [10]): 0.82 µmol/g
- Amount of organic acid: Isobutyric acid (female BALB/c mice [4]; [10]): 1.9 µmol/g
- Amount of organic acid: Isovaleric acid (female BALB/c mice [4]; [10]): 2.4 µmol/g
- Amount of organic acid: Lactic acid (female BALB/c mice [4]; [10]): 4.2 µmol/g
- Amount of organic acid: Malic acid (female BALB/c mice [4]; [10]): 1.5 µmol/g
- Amount of organic acid: Propionic acid (female BALB/c mice [4]; [10]): 12 µmol/g
- Amount of organic acid: Succinic acid (female BALB/c mice [4]; [10]): 5.6 µmol/g
- Amount of organic acid: Total organic acids (female BALB/c mice [4]; [10]): 106 µmol/g
- Amount of organic acid: n-Butyric acid (female BALB/c mice [4]; [10]): 14 µmol/g
- Amount of organic acid: n-Valeric acid (female BALB/c mice [4]; [10]): 0.87 µmol/g
- lactic acid content in cecal contents (in words) (female BALB/c mice [4]; mouse, in vivo): increased
- Relative amount of IFN-γ (Peyer's patch cells [5]; ConA 2 μg/ml): 269%
- Relative amount of IL-4 (Peyer's patch cells [5]; ConA 2 μg/ml): 96%
- Relative amount of IFN-γ (Peyer's patch cells [5]; LPS 2 μg/ml): 103%
- Relative amount of IL-4 (Peyer's patch cells [5]; LPS 2 μg/ml): 101%
- IFN-γ production by stimulation of concanavalin A (in words) (Peyer's patch cells [5]): accelerated

Compound: OC[C@H]1O[C@H](O[C@H]2[C@H](O)[C@@H](CO)OC(O)[C@@H]2O)[C@H](O)[C@@H](O)[C@@H]1O (stereo partly shown) [Nigerose, nigerose]
- Relative amount of IFN-γ (Peyer's patch cells [5]; ConA 2 μg/ml): 63%
- Relative amount of IL-4 (Peyer's patch cells [5]; ConA 2 μg/ml): 100%
- Relative amount of IFN-γ (Peyer's patch cells [5]; LPS 2 μg/ml): 104%
- Relative amount of IL-4 (Peyer's patch cells [5]; LPS 2 μg/ml): 99%
- IFN-γ production by stimulation of concanavalin A (in words) (Peyer's patch cells [5]): suppressed

Compound: OC[C@H]1O[C@H](OC[C@H]2OC(O)[C@H](O)[C@@H](O)[C@@H]2O)[C@H](O)[C@@H](O)[C@@H]1O (stereo partly shown) [Isomaltose, isomaltose]
- Relative amount of IFN-γ (Peyer's patch cells [5]; ConA 2 μg/ml): 53%
- Relative amount of IL-4 (Peyer's patch cells [5]; ConA 2 μg/ml): 100%
- Relative amount of IFN-γ (Peyer's patch cells [5]; LPS 2 μg/ml): 100%
- Relative amount of IL-4 (Peyer's patch cells [5]; LPS 2 μg/ml): 97%
- IFN-γ production by stimulation of concanavalin A (in words) (Peyer's patch cells [5]): suppressed
